We go through 1 molecule from article PMC3931136 (Scientific Reports, 2014).

For the experiment, the system named is S. suis BgaC. Description: p-nitrophenol release, absorbance at […] nm. It is filed as biochemical, Streptococcus suis. Particulars: pH 5.5, 42 °C, 30 min (stated optimum); PBS, 10 mM MgCl2, 10 mM DTT.

Broadly, the Km is the concentration of substrate that gives half-maximal velocity. As for `O=[N+]([O-])c1ccc(O[C@@H]2O[C@H](CO)[C@H](O)[C@H](O)[C@H]2O)cc1` [pNPG, p-nitrophenyl-β-galactopyranoside], the Km worked out at 398 µM.
